Test results reported in US8415469B2, “Compounds and methods for kinase modulation, and indications therefor” (Plexxikon Inc., priority 2005, dated 2013).

How the values were obtained:
Assay type in all cases: biochemical
[1] = target: T1, IKK beta (Homo sapiens, UniProt O14920); test: AlphaScreen kinase assay, IKK beta; settings: read-out: IC50, activity toward kinase IKK beta
T1 sequence (O14920 1-756): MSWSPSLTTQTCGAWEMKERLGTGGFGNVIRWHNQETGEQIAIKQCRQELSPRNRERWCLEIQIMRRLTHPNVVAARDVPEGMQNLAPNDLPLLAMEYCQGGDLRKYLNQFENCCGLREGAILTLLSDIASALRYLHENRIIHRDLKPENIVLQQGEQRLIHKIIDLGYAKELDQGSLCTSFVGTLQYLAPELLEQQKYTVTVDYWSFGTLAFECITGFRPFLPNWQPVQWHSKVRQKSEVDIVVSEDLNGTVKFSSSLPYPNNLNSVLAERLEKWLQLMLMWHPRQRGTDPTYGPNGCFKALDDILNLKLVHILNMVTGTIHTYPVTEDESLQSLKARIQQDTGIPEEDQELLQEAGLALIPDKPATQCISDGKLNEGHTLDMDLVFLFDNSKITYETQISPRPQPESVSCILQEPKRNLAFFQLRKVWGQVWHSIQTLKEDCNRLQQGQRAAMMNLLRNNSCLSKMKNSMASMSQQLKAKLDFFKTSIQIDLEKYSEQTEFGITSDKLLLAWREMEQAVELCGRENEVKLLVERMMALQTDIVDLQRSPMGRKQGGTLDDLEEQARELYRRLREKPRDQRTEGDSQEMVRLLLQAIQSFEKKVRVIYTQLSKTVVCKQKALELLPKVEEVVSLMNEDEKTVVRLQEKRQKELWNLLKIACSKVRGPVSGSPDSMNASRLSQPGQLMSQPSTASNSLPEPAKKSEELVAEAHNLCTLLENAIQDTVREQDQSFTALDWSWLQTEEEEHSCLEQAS

[2] = target: T2, Kdr (Homo sapiens, UniProt P35968); test: Z'-Lyte FRET kinase assay (Invitrogen), Kdr; settings: read-out: IC50, activity toward kinase Kdr
T2 construct: purchased Invitrogen (assay run by Invitrogen)
T2 sequence (P35968 20-1356): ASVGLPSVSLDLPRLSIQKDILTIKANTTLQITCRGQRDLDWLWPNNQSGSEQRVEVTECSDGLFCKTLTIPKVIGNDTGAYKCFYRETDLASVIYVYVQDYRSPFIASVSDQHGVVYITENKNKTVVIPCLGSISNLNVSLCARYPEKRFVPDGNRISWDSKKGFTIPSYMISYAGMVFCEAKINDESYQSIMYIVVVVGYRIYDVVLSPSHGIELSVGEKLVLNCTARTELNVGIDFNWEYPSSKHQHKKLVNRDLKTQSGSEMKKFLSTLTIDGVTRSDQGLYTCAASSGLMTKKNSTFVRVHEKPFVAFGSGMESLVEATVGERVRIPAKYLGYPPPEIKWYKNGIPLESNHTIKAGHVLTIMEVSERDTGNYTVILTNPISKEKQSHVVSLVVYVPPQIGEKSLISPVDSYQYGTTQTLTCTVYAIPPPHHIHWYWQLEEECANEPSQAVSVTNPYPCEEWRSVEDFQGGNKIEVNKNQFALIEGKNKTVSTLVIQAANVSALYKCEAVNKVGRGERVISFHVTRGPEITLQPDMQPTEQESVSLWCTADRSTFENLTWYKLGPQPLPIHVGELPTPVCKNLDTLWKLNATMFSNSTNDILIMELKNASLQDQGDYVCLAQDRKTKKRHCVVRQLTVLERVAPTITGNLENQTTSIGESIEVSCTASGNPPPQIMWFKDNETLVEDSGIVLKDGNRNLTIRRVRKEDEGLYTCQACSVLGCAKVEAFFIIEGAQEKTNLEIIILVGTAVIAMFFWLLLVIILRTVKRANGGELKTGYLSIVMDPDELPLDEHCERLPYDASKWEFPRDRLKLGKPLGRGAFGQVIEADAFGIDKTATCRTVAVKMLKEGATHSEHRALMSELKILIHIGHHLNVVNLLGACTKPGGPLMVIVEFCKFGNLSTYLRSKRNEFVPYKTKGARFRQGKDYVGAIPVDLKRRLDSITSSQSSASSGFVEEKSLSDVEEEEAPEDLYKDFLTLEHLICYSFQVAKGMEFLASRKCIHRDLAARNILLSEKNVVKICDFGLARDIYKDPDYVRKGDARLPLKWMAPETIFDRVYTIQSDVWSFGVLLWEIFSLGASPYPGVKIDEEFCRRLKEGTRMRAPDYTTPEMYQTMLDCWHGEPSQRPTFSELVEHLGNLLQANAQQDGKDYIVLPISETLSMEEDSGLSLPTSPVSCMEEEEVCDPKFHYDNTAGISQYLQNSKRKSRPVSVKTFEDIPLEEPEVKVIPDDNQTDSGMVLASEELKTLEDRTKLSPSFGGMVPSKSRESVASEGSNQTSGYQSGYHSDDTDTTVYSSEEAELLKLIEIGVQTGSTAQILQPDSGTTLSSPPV

[3] = target: T3, Jak3 (Homo sapiens, UniProt P52333); test: AlphaScreen kinase assay, Jak3; settings: read-out: IC50, activity toward kinase Jak3
T3 sequence (P52333 1-1124): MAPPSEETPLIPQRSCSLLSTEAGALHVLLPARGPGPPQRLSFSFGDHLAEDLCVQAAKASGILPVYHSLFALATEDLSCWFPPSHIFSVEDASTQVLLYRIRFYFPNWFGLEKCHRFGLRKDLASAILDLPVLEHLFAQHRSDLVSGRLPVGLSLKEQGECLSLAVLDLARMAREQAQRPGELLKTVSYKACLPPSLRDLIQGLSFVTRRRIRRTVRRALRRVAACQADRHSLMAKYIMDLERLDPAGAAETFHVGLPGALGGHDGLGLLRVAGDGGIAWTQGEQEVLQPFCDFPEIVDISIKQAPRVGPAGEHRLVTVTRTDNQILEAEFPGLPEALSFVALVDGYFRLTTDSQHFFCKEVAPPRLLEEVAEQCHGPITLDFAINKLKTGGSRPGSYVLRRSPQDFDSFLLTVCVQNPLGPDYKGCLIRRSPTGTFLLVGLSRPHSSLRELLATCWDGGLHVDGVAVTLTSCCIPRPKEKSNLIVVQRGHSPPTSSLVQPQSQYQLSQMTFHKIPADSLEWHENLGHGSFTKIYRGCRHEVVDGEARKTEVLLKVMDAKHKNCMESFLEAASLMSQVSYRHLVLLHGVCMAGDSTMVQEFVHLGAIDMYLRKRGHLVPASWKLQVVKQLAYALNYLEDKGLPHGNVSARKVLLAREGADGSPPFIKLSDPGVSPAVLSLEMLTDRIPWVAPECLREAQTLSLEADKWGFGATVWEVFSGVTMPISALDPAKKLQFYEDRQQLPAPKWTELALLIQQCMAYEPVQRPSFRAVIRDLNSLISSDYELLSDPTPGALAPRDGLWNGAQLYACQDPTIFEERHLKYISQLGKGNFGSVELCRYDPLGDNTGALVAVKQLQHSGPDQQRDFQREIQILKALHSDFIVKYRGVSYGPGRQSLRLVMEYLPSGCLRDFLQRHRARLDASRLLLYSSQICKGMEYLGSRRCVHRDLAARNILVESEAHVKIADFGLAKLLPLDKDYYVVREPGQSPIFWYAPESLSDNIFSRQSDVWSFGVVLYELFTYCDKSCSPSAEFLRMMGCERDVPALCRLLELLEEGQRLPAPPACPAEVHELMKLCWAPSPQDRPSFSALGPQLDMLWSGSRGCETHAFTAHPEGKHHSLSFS
How it was run: (§1)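 Compounds in DMSO (20 mM stock) were diluted 1:3 across 8 points. Each kinase phosphorylated a biotin-labelled peptide. Signal generated when donor and acceptor beads came close via antibody binding of phosphorylated substrate.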

[4] = target: IGF1R (Homo sapiens, UniProt P08069); test: AlphaScreen kinase assay, IGF1R; settings: read-out: IC50, activity toward kinase IGF1R
Chain of IGF1R (P08069 31-1367): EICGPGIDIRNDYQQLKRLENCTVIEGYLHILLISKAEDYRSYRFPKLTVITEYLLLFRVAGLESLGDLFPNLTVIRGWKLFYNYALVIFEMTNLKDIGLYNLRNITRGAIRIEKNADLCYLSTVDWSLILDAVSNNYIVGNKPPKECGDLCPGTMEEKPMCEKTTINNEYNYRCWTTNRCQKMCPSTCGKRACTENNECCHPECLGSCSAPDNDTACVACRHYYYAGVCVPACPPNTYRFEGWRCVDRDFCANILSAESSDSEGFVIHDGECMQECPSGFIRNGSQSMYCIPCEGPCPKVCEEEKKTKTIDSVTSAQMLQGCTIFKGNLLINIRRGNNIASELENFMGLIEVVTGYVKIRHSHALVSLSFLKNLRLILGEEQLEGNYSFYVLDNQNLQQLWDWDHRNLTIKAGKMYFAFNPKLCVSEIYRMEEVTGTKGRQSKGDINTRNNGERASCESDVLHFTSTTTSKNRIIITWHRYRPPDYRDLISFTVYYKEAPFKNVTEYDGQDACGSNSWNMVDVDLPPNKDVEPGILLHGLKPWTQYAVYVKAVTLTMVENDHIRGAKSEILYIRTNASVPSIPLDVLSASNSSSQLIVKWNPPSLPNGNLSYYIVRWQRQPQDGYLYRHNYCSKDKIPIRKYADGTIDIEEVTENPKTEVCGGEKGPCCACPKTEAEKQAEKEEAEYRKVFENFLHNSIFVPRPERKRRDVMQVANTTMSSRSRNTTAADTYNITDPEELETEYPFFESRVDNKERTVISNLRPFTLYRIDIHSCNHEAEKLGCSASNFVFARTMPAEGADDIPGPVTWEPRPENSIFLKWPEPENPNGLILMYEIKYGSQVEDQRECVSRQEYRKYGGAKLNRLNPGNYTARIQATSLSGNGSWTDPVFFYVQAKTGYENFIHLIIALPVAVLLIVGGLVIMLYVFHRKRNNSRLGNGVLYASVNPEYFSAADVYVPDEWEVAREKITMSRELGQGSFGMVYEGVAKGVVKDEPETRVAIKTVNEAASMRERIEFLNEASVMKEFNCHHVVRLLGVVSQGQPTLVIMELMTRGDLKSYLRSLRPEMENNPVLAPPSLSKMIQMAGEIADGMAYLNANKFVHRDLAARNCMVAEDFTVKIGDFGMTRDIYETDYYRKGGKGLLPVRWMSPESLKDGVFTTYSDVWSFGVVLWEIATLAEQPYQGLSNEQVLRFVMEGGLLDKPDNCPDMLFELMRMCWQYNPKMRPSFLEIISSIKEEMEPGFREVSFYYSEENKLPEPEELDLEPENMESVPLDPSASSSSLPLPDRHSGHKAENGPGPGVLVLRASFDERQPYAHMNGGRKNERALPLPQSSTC
Description: AlphaScreen assays were done using compounds dissolved in DMSO to a concentration of 20 mM. The compounds were diluted accordingly to the desired final concentrations in each sample well, using 1:3 serial dilution for a total of 8 concentration points. Plates were prepared such that each kinase reaction is 20 μl in 1× kinase buffer, 5% DMSO and 10 μM ATP. After incubation of the kinase reaction for 1 hour at room temperature, 5 μl of donor beads in stop buffer (50 mM EDTA in 1× kinase buffer) was added, the sample was mixed and incubated for 20 minutes at room temperature before adding 5 μl of acceptor beads in stop buffer. The samples were incubated for 60 minutes at room temperature and the signal per well was read on AlphaQuest reader.

[5] = target: T4, Ret (Homo sapiens, UniProt P07949); test: AlphaScreen kinase assay, Ret; settings: read-out: IC50, activity toward kinase Ret
T4 construct: P1378.pET-SF BI-PTP RET H661-R1012 HIS; made in house
T4 sequence (P07949 with tags, fused parts or gaps): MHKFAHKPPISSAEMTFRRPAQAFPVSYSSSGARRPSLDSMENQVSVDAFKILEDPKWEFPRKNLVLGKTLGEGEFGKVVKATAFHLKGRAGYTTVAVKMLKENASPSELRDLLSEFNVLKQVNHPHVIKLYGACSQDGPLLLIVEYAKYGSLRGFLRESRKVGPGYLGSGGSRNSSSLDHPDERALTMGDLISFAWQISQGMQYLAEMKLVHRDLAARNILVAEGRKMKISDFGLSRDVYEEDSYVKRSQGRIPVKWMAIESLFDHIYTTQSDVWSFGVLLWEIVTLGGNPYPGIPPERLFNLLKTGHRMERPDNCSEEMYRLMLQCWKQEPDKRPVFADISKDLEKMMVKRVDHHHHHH

[6] = target: T5, Jnk3 (Homo sapiens, UniProt P53779); test: AlphaScreen kinase assay, Jnk3; settings: read-out: IC50, activity toward kinase Jnk3
T5 construct: purchased Upstate Biotechnology
T5 sequence (P53779 whole entry): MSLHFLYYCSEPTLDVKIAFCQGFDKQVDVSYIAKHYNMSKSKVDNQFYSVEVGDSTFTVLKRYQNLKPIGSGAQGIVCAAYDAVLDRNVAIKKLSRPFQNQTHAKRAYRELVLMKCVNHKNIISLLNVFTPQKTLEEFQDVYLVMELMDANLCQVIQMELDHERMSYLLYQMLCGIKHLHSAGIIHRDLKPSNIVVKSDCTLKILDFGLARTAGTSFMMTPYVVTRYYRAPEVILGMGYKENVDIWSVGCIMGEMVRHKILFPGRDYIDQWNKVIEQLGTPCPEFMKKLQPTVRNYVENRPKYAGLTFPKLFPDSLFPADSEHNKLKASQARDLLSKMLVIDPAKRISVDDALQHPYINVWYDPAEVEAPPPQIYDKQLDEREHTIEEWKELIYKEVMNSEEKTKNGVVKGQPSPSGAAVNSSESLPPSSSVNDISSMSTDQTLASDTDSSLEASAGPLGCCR

[7] = target: T6, Stk6 (Homo sapiens, UniProt O14965); test: Z'-Lyte FRET kinase assay (Invitrogen), Stk6; settings: read-out: IC50, activity toward kinase Stk6
T6 construct: purchased Invitrogen (Carlsbad, Calif.), screening service
T6 sequence (O14965 1-403): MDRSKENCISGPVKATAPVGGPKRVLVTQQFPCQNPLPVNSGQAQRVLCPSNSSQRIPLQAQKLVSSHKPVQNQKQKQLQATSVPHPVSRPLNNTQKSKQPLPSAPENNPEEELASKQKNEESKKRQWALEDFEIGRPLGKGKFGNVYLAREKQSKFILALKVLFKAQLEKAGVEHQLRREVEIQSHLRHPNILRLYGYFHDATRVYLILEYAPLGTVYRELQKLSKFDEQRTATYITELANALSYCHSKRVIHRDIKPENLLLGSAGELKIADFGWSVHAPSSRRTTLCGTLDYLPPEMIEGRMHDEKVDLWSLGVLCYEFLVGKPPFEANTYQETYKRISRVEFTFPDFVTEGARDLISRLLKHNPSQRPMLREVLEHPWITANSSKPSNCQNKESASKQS
Excerpt: For example, direct radiometric, indirect FRET or AlphaScreen assays may be used to assess the level of phosphorylation of a substrate in the presence of test compounds in order to determine the inhibitory affect of the compound on the kinase. […] For these assays, compounds of the invention were screened by Invitrogen using Z′-Lyte™ kinase assay.
Briefly, the Invitrogen kinase assay involves use of a specific peptide substrate optimized for each kinase, containing a fluorophore at each end that make up the FRET pair. The peptide sensitivity to proteolytic cleavage depends on phosphorylation of the peptide. Non-phosphorylated peptide is cleaved by a protease while peptide phosphorylated by the kinase is not cleaved. Cleavage of the peptide disrupts the FRET between the donor (coumarin) and acceptor (fluorescein) fluorophores, resulting in an increase in the ratio of donor emission to acceptor emission. The emission ratio of coumarin to fluorescein is used to assess the reaction progress. […] Thus, the assay involves a kinase reaction in the presence of varying concentrations of a given compound, a development reaction with site specific protease, and detection of the fluorescent emission ratio of coumarin and fluorscein. […] Reaction conditions for each kinase are determined to provide optimal reaction times, incubation temperature, kinase and ATP concentrations. Test samples are made up in 1× kinase buffer (50 mM HEPES pH 7.5, 50 mM MgCl2, 5 mM EGTA, 0.05% BRIJ-35) and compound at desired concentration prepared in DMSO such that the final DMSO is 1%. […] All kinase except for MAP2K1 were at 10 μM ATP in the kinase reaction, while MAP2K1 was at 100 μM. Samples are mixed and the kinase reaction is incubated 1 hour at room temperature, after which 5 μl of development solution is added and mixed. After incubation for another 1 hour at room temperature, 5 μl of stop reagent is added to each sample and mixed. The fluorescence signals are measured to determine the emission ratio.

[8] = target: T7, Kit (Homo sapiens, UniProt P10721); test: AlphaScreen kinase assay, Kit; settings: read-out: IC50, activity toward kinase Kit
T7 construct: P1332.N6 BI PTP KIT M552-K948-X COD; His6 (N); made in house; host or cells: E. coli (PTP1B co-expressed)
T7 sequence (P10721 with tags, fused parts or gaps): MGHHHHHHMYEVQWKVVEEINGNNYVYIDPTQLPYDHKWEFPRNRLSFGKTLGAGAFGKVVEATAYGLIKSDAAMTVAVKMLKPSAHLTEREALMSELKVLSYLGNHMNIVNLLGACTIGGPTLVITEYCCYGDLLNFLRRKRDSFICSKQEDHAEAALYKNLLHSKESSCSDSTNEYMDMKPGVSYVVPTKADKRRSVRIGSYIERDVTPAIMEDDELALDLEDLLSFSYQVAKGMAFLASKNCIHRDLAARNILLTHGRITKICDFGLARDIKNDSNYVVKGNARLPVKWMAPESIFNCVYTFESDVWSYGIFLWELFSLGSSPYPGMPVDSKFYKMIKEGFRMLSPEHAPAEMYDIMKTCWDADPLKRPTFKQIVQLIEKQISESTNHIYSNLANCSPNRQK

[9] = target: T8, c-Raf-1 (Homo sapiens, UniProt P04049); test: AlphaScreen kinase assay, c-Raf-1; settings: read-out: IC50, activity toward kinase c-Raf-1
T8 construct: purchased Upstate Biotechnology
T8 sequence (P04049 whole entry): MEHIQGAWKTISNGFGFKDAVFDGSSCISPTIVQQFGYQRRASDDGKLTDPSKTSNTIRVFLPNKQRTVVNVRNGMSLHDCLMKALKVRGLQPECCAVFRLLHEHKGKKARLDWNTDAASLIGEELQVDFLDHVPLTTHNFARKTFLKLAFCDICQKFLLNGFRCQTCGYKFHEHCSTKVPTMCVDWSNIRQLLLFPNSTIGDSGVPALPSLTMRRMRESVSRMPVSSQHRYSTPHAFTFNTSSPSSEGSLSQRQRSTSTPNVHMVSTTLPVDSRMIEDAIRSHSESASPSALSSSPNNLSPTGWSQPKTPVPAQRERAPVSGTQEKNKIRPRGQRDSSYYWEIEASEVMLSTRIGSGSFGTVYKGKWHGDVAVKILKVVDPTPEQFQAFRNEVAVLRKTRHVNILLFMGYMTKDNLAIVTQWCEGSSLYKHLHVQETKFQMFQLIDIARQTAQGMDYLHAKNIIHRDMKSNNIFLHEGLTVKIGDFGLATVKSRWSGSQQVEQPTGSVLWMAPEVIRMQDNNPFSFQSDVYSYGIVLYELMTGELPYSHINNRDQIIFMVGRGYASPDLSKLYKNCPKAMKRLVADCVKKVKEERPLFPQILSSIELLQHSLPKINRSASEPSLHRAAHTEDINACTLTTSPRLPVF

[10] = target: T9, B-Raf V600E (Homo sapiens, UniProt P15056, V600E); test: AlphaScreen kinase assay, B-Raf V600E; settings: read-out: IC50, activity toward kinase B-Raf V600E
T9 construct: P4254. pFastBacBD-CDC37 BRAF D437-K722-X, V600E; His6 with pFastBac HT leader (TEV site) (N); made in house; host or cells: Sf9 (baculovirus; chaperone CDC37 co-expressed)
T9 sequence (P15056 with tags, fused parts or gaps V600E): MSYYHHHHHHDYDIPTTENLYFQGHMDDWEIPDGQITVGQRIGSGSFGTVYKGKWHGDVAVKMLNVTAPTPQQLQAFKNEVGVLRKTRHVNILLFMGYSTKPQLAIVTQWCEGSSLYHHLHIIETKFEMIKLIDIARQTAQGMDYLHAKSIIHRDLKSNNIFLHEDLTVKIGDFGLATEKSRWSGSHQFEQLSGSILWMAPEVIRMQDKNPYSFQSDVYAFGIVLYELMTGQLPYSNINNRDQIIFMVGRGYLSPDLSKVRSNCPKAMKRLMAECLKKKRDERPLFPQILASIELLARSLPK

[11] = target: T10, Itk (Homo sapiens, UniProt Q08881); test: AlphaScreen kinase assay, Itk; settings: read-out: IC50, activity toward kinase Itk
T10 sequence (Q08881 1-620): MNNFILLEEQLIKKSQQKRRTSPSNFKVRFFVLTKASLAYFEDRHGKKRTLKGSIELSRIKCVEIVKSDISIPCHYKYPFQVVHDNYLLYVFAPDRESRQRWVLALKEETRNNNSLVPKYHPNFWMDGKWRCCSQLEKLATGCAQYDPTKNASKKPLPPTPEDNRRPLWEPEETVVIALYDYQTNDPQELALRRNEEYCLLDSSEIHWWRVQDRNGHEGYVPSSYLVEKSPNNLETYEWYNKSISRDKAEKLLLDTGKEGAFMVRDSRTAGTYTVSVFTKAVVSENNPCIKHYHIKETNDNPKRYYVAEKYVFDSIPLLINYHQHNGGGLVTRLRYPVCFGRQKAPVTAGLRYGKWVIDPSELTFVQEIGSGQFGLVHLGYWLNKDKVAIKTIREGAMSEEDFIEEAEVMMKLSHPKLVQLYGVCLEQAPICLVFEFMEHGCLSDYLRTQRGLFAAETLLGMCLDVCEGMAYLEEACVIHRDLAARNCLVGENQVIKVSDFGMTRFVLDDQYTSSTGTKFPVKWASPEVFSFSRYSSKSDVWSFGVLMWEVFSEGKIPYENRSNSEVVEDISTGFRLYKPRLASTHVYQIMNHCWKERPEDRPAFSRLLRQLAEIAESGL
Excerpt: AlphaScreen assay was used to screen additional kinases. The assay is similarly dependent on the phosphorylation of a peptide substrate. In this assay, an antibody that recognizes phosphorylated substrate is bound to an acceptor bead. The peptide substrate is attached to biotin, which binds to a donor head that contains streptavidin. Thus phosphorylated substrate is bound by antibody and streptavidin, bringing the donor and acceptor heads into close proximity when kinase is not inhibited. The donor produces singlet oxygen which results in emission from the acceptor when they are in close proximity. Conversely, when kinase is inhibited, the donor and acceptor beads are not associated and the emission from the acceptor is reduced.
AlphaScreen assays were done using compounds dissolved in DMSO to a concentration of 20 mM. The compounds were diluted accordingly to the desired final concentrations in each sample well, using 1:3 serial dilution for a total of 8 concentration points.

[12] = target: T11, Met (Homo sapiens, UniProt P08581); test: AlphaScreen kinase assay, Met; settings: read-out: IC50, activity toward kinase Met
T11 construct: P1818.pETN6 BI-PTP MET G1056-G1364-X WT; His6 (N); made in house; host or cells: E. coli (PTP1B co-expressed)
T11 sequence (P08581 with tags, fused parts or gaps): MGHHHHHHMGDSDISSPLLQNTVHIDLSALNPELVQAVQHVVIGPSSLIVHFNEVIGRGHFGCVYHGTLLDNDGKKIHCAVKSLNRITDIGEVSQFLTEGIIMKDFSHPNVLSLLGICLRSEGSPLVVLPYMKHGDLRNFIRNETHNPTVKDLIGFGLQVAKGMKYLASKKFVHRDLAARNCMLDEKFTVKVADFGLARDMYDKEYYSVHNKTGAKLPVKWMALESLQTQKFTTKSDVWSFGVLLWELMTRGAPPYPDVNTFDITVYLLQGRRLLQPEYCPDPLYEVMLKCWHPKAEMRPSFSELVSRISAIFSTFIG
How it was run: as §1

[13] = target: T12, B-Raf (Homo sapiens, UniProt P15056); test: AlphaScreen kinase assay, B-Raf; settings: read-out: IC50, activity toward kinase B-Raf
T12 construct: purchased Upstate Biotechnology

[14] = target: T13, Zap70 (Homo sapiens, UniProt P43403); test: AlphaScreen kinase assay, Zap70; settings: read-out: IC50, activity toward kinase Zap70
T13 construct: P1868.pFastBac1 ZAP70 D327-G606 HIS, WT; His7 (HHHHHHH) (C); made in house
T13 sequence (P43403 with tags, fused parts or gaps): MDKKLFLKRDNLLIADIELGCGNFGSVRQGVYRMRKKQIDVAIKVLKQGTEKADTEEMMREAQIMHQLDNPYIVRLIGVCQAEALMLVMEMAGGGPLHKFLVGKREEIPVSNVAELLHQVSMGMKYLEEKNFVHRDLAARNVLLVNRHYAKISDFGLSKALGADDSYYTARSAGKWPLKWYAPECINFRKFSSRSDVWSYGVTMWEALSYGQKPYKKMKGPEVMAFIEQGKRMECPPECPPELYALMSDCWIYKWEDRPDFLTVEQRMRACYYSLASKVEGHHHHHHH
How it was run: as §1

[15] = target: T14, Fms (Homo sapiens, UniProt P07333); test: AlphaScreen kinase assay, Fms; settings: read-out: IC50, activity toward kinase Fms
T14 construct: purchased Upstate Biotechnology

[16] = target: T15, FGFR1 (Homo sapiens, UniProt P11362, C488A/C584S); test: AlphaScreen kinase assay, FGFR1; settings: read-out: IC50, activity toward kinase FGFR
T15 construct: P1351.pET N6 BI-PTP FGFR A458-E765-X C488A, C584S; made in house; host or cells: E. coli (PTP1B co-expressed)

Measured: IC50

OCc1cccc(-c2ccnc3[nH]ccc23)c1 [Compound P-0084]
≤ 10 µM: [1] | [2] | [3] | [4]

CC(=O)Nc1cccc(-c2cnc3[nH]ccc3c2)c1 [Compound P-0115]
≤ 10 µM: [5] | [6] | [1] | [2] | [7] | [8] | [4]

CS(=O)(=O)Nc1cccc(-c2cnc3[nH]cc(C(=O)c4cc(O)ccc4F)c3c2)c1 [Compound P-0716, N-{3-[3-(2-Fluoro-5-hydroxy-benzoyl)-1H-pyrrolo[2,3-b]pyridin-5-yl]-phenyl}-methanesulfonamide]
≤ 10 µM: [5] | [6] | [9] | [10] | [11] | [12] | [13] | [14] | [4]

CS(=O)(=O)Nc1cccc(-c2cnc3[nH]ccc3c2)c1 [Compound P-1337]
≤ 10 µM: [15] | [11] | [16] | [4]
